In ChEMBL document CHEMBL5356960, “Discovery of Selective and Orally Available Galectin-1 Inhibitors” (J Med Chem, 2023):
The source made the active and inactive calls. The calls are words filed in the database; no cut-off is given here.

Legend:
[1] = Lipophilicity, logD of compound at pH 7.4 preincubated with octanol for 5 mins followed by phosphate buffer addition and measured after 1 hrs by shakeflask method based LC-MS/MS analysis; format: physicochemical; settings: time 65 min
Galectin-1 [2] = biological target: T1, Galectin-1 (Homo sapiens, UniProt P09382); test: Binding affinity to human galectin 1 assessed as dissociation constant incubated for 30 mins in presence of TDGA probe by fluorescence polarization assay
Galectin-3 [3] = biological target: T2, Galectin-3 (Homo sapiens, UniProt P17931); test: Binding affinity to human galectin-3 assessed as dissociation constant by fluorescence polarization assay
[4] = Apparent permeability from apical to basolateral side in human Caco-2 cells at 10 uM incubated for 90 mins by LC-MS/MS analysis; format: ADME, cell-based
[5] = Apparent permeability from basolateral to apical side in human Caco-2 cells at 10 uM incubated for 90 mins by LC-MS/MS analysis; format: ADME, cell-based
[6] = Metabolic stability in human hepatocytes assessed as intrinsic clearance measured per 10^6 cells at 2 uM incubated for 15 to 120 mins by LC-MS/MS analysis; format: ADME, cell-based, Hepatocyte; settings: time 15-120 min, read-out: CLH
[7] = Metabolic stability in mouse hepatocytes assessed as intrinsic clearance measured per 10^6 cells at 2 uM incubated for 15 to 120 mins by LC-MS/MS analysis; format: ADME, cell-based, Hepatocyte; settings: time 15-120 min, read-out: CLH
[8] = Protein binding in human plasma assessed as unbound fraction at 2 uM incubated for 5 hrs by equilibrium dialysis based LC-MS/MS analysis; format: ADME, cell-free
[9] = Protein binding in mouse plasma assessed as unbound fraction at 2 uM incubated for 5 hrs by equilibrium dialysis based LC-MS/MS analysis; format: ADME, cell-free
Galectin-1 [10] = biological target: T1, Galectin-1; test: Binding affinity to galectin-1 (unknown origin) assessed as dissociation constant
Galectin-3 [11] = biological target: T2, Galectin-3; test: Binding affinity to galectin-3 (unknown origin) assessed as dissociation constant
Jurkat [12] = test: Inhibition of galectin-1 induced apoptosis in human Jurkat T cells assessed as reduction in caspase-3 activation upto 24 uM incubated for 24 hrs by CellEvent caspase-3/7 green fluorescent detection reagent based imaging analysis; format: functional, cell-based
[13] = Cytotoxicity against human A549 cells assessed as inhibition of cell growth incubated for 72 hrs by MTT assay; format: toxicity, cell-based
Galectin-4 [14] = biological target: T3, Galectin-4 (Homo sapiens, UniProt P56470); test: Binding affinity to N-terminal human Galectin-4 assessed as dissociation constant by fluorescence polarization assay
T3 sequence (P56470 whole entry): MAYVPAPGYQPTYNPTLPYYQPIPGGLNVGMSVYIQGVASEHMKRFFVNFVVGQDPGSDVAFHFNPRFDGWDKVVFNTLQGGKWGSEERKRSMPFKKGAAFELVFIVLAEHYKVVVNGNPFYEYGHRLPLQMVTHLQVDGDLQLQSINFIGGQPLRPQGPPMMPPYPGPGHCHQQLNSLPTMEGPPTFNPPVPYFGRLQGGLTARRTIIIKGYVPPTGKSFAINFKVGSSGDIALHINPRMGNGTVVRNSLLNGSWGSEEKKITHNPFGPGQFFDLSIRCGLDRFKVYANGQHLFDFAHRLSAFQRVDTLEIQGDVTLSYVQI

Galectin-4 [15] = biological target: T3, Galectin-4; test: Binding affinity to C-terminal human Galectin-4 assessed as dissociation constant by fluorescence polarization assay
Galectin-7 = Galectin-7 (Homo sapiens, UniProt P47929); test: Binding affinity to human Galectin-7 assessed as dissociation constant by fluorescence polarization assay
Galectin-8 [16] = biological target: T4, Galectin-8 (Homo sapiens, UniProt O00214); test: Binding affinity to N-terminal human Galectin-8 assessed as dissociation constant by fluorescence polarization assay
T4 sequence (O00214 whole entry): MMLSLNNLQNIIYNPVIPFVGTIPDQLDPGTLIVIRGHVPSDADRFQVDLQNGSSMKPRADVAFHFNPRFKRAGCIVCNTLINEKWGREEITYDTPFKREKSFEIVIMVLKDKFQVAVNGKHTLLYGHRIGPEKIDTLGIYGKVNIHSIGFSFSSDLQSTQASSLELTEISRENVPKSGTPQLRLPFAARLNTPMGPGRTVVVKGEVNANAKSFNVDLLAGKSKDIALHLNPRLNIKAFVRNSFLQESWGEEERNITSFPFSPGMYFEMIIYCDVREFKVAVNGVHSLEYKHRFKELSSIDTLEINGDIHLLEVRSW

Galectin-8 [17] = biological target: T4, Galectin-8; test: Binding affinity to C-terminal human Galectin-8 assessed as dissociation constant by fluorescence polarization assay
Galectin-9 [18] = biological target: T5, Galectin-9 (Homo sapiens, UniProt O00182); test: Binding affinity to N-terminal human Galectin-9 assessed as dissociation constant by fluorescence polarization assay
Galectin-9 [19] = biological target: T5, Galectin-9; test: Binding affinity to C-terminal human Galectin-9 assessed as dissociation constant by fluorescence polarization assay
Galectin-1 [20] = biological target: T6, Galectin-1 (Mus musculus, UniProt P16045); test: Binding affinity to mouse Galectin-1 assessed as dissociation constant incubated for 30 mins in the presence of TDGA probe by fluorescence polarization assay
Galectin-3 [21] = biological target: T7, Galectin-3 (Mus musculus, UniProt P16110); test: Binding affinity to mouse Galectin-3 assessed as dissociation constant by fluorescence polarization assay
Galectin-1 [22] = biological target: T1, Galectin-1; test: Binding affinity to human galectin-1 assessed as dissociation constant by SPR analysis
Galectin-1 [23] = biological target: T6, Galectin-1; test: Binding affinity to mouse full-length galectin-1 assessed as dissociation constant by SPR analysis
Galectin-3 [24] = biological target: T2, Galectin-3; test: Binding affinity to human galectin-3 assessed as dissociation constant by SPR analysis
Galectin-3 [25] = biological target: T7, Galectin-3; test: Binding affinity to mouse full-length galectin-3 assessed as dissociation constant by SPR analysis
A549 = test: Cytotoxicity against human A549 cells assessed as reduction in cell viability incubated for 72 hrs by MTT assay relative to control; format: toxicity, cell-based; settings: a549, 72 h
Jurkat [26] = test: Inhibition of galectin-1 induced apoptosis in human Jurkat T cells assessed as reduction in caspase-3 activation incubated for 24 hrs by CellEvent caspase-3/7 green fluorescent detection reagent based imaging analysis
[27] = Clearance in C57BL/6 mouse at 1 mg/kg, iv measured upto 8 hrs by HPLC analysis; format: ADME, organism-based; settings: in vivo
[28] = Volume of distribution at steady state in C57BL/6 mouse at 1 mg/kg, iv measured upto 8 hrs by HPLC analysis; format: ADME, organism-based; settings: in vivo, read-out: Vdss
[29] = Tmax in C57BL/6 mouse at 10 mg/kg, po or 1 mg/kg, iv by HPLC analysis; format: ADME, organism-based; settings: in vivo
[30] = Cmax in C57BL/6 mouse at 10 mg/kg, po or 1 mg/kg, iv by HPLC analysis; format: ADME, organism-based; set-up: dose 10 mg/kg, route po; settings: in vivo
[31] = AUCinfinity in C57BL/6 mouse at 10 mg/kg, po or 1 mg/kg, iv by HPLC analysis; format: ADME, organism-based; set-up: dose 10 mg/kg, route po; settings: in vivo
[32] = Oral bioavailability in C57BL/6 mouse at 10 mg/kg measured upto 24 hrs by HPLC analysis; format: ADME, organism-based; settings: in vivo

T2 sequence (P17931 whole entry): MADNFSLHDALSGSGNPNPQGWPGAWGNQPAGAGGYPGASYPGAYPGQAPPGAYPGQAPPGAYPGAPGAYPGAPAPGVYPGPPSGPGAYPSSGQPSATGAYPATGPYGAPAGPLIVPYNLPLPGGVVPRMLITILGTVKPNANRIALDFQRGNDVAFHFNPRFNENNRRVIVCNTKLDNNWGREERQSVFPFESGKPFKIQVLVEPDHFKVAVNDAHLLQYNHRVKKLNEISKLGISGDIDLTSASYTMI
T1 sequence (P09382 whole entry): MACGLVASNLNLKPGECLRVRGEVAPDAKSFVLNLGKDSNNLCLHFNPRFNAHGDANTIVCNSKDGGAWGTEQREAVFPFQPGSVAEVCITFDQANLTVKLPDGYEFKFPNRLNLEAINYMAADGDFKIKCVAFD
T5 sequence (O00182 whole entry): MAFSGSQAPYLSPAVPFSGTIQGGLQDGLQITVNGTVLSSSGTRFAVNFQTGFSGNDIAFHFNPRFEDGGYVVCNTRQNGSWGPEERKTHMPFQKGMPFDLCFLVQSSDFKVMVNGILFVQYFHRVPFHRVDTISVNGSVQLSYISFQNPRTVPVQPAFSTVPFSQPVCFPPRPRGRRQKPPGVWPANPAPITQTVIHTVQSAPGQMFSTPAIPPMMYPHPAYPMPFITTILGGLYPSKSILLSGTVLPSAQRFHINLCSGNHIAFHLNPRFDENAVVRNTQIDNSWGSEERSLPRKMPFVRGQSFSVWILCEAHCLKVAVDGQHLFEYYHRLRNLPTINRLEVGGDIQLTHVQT
T7 sequence (P16110 whole entry): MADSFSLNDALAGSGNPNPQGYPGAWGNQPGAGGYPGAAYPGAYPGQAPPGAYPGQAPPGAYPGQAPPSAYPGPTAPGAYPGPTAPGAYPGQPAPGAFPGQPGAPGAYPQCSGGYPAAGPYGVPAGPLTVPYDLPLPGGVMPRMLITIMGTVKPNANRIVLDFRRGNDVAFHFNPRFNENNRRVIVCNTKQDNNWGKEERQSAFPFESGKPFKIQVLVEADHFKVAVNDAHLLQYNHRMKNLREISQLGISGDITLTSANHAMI
T6 sequence (P16045 whole entry): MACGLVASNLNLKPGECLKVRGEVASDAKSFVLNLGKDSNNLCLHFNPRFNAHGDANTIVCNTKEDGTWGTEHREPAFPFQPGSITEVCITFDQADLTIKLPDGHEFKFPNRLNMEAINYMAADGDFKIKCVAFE
Galectin-7, sequence (P47929 whole entry): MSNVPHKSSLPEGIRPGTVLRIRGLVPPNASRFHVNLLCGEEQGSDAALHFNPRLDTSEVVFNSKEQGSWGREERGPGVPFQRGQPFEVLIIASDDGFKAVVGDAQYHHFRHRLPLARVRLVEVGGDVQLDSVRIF

OC[C@H]1O[C@H](Sc2cc(Cl)c(F)c(Cl)c2)[C@H](O)[C@@H](n2cc(-c3cscn3)nn2)[C@H]1O
logD at 1 h [1]: 2.9 | Kd (Galectin-1 [2]): 0.33 µM | Kd (Galectin-3 [3]): 2.9 µM | Papp A→B at 1.5 h, 10 µM [4]: 9 ×10⁻⁶ cm/s | Papp B→A at 1.5 h, 10 µM [5]: 30 ×10⁻⁶ cm/s | hepatocyte CLint at 2 µM [6]: < 1 µL/min/1e6 cells | hepatocyte CLint at 2 µM [7]: < 1.5 µL/min/1e6 cells | fraction unbound at 5 h, 2 µM [8]: 0.033 | fraction unbound at 5 h, 2 µM [9]: 0.015

OC[C@H]1O[C@@H](S[C@@H]2O[C@H](CO)[C@H](O)[C@H](n3cc(-c4ccsc4)nn3)[C@H]2O)[C@H](O)[C@@H](n2cc(-c3ccsc3)nn2)[C@H]1O
Kd (Galectin-1 [10]): < 0.01 µM | Kd (Galectin-3 [11]): 0.065 µM

OC[C@H]1O[C@H](Sc2ccc(Cl)c(Cl)c2)[C@H](O)[C@@H](n2cc(-c3ncc[nH]3)nn2)[C@H]1O
logD at 1 h [1]: 2.3 | Kd (Galectin-1 [2]): 0.64 µM | Kd (Galectin-3 [3]): 2.1 µM | Papp A→B at 1.5 h, 10 µM [4]: 0.4 ×10⁻⁶ cm/s | Papp B→A at 1.5 h, 10 µM [5]: 25 ×10⁻⁶ cm/s

CN(C)CCNC(=O)COc1c2cccc1Cc1cccc(c1OCC(=O)NCCN(C)C)Cc1cccc(c1OCC(=O)NCCN(C)C)Cc1cccc(c1OCC(=O)NCCN(C)C)C2
inhibition (Jurkat [12]): inactive

OC[C@H]1O[C@H](Sc2ccc(Cl)c(Cl)c2)[C@H](O)[C@@H](n2cc(-c3ncsn3)nn2)[C@H]1O
Kd (Galectin-1 [2]): 2 µM | Kd (Galectin-3 [3]): 3.4 µM

OC[C@H]1O[C@H](Sc2cncc(Br)c2)[C@H](O)[C@@H](n2cc(-c3ccsc3)nn2)[C@H]1O
logD at 1 h [1]: 2 | Kd (Galectin-1 [2]): 0.68 µM | Kd (Galectin-3 [3]): 1.7 µM | Papp A→B at 1.5 h, 10 µM [4]: 4.5 ×10⁻⁶ cm/s | Papp B→A at 1.5 h, 10 µM [5]: 31 ×10⁻⁶ cm/s

OC[C@H]1O[C@H](Sc2ccc(Cl)c(Cl)c2)[C@H](O)[C@@H](n2cc(-c3ccsc3)nn2)[C@H]1O
logD at 1 h [1]: 3.6 | Kd (Galectin-1 [2]): 0.28 µM | Kd (Galectin-3 [3]): 2.1 µM | Papp A→B at 1.5 h, 10 µM [4]: 10 ×10⁻⁶ cm/s | Papp B→A at 1.5 h, 10 µM [5]: 18 ×10⁻⁶ cm/s | hepatocyte CLint at 2 µM [6]: 4.9 µL/min/1e6 cells | hepatocyte CLint at 2 µM [7]: 15 µL/min/1e6 cells | fraction unbound at 5 h, 2 µM [8]: 0.014 | fraction unbound at 5 h, 2 µM [9]: 0.015

OC[C@H]1O[C@H](Sc2cc(Cl)c(F)c(Cl)c2)[C@H](O)[C@@H](n2cc(-c3nccs3)nn2)[C@H]1O
IC50 at 72 h [13]: > 90 µM | logD at 1 h [1]: 3.1 | Kd (Galectin-1 [2]): 0.41 µM | Kd (Galectin-3 [3]): 2.7 µM | Papp A→B at 1.5 h, 10 µM [4]: 11 ×10⁻⁶ cm/s | Papp B→A at 1.5 h, 10 µM [5]: 31 ×10⁻⁶ cm/s | hepatocyte CLint at 2 µM [6]: < 1 µL/min/1e6 cells | hepatocyte CLint at 2 µM [7]: < 1.5 µL/min/1e6 cells | fraction unbound at 5 h, 2 µM [8]: 0.038 | fraction unbound at 5 h, 2 µM [9]: 0.013 | Kd (Galectin-4 [14]): 37 µM | Kd (Galectin-4 [15]): 2.5 µM | Kd (Galectin-7): 60 µM | Kd (Galectin-8 [16]): 65 µM | Kd (Galectin-8 [17]): 130 µM | Kd (Galectin-9 [18]): 16 µM | Kd (Galectin-9 [19]): 23 µM | Kd (Galectin-1 [20]): 0.23 µM | Kd (Galectin-3 [21]): 5.8 µM | Kd (Galectin-1 [22]): 0.644 µM | Kd (Galectin-1 [23]): 0.363 µM | Kd (Galectin-3 [24]): 62.6 µM | Kd (Galectin-3 [25]): 70.4 µM | Activity (A549): 46.6% | IC50 (Jurkat [26]): 2.3 µM | clearance [27]: 7.5 mL/min/kg | Vd [28]: 0.4 L/kg | Tmax [29]: 30 min | Cmax [30]: 6900 ng/mL | AUC(0-inf) [31]: 3200 ng·h/mL | bioavailability [32]: > 99%

OC[C@H]1O[C@H](Sc2ccc(Cl)c(Cl)c2)[C@H](O)[C@@H](n2cc(-c3cc(F)c(F)c(F)c3)nn2)[C@H]1O
Papp A→B at 1.5 h, 10 µM [4]: 19 ×10⁻⁶ cm/s | Papp B→A at 1.5 h, 10 µM [5]: 20 ×10⁻⁶ cm/s

OC[C@H]1O[C@H](Sc2ccc(Cl)c(Cl)c2)[C@H](O)[C@@H](n2cc(-c3nncs3)nn2)[C@H]1O
Kd (Galectin-1 [2]): 1.7 µM | Kd (Galectin-3 [3]): 1.3 µM

OC[C@H]1O[C@H](Sc2ccc(Cl)c(Cl)c2)[C@H](O)[C@@H](n2cc(-c3ncco3)nn2)[C@H]1O
Kd (Galectin-1 [2]): 2.7 µM | Kd (Galectin-3 [3]): 11 µM

OC[C@H]1O[C@H](Sc2cc(Cl)c(F)c(Cl)c2)[C@H](O)[C@@H](n2cc(-c3cccs3)nn2)[C@H]1O
Kd (Galectin-1 [2]): 0.97 µM | Kd (Galectin-3 [3]): 1.5 µM

OC[C@H]1O[C@H](Sc2cc(Cl)c(F)c(Cl)c2)[C@H](O)[C@@H](n2cc(-c3cncs3)nn2)[C@H]1O
Kd (Galectin-1 [2]): 22 µM | Kd (Galectin-3 [3]): 3 µM

OC[C@H]1O[C@H](Sc2ccc(Cl)c(Cl)c2)[C@H](O)[C@@H](n2cc(-c3cscn3)nn2)[C@H]1O
logD at 1 h [1]: > 4 | Kd (Galectin-1 [2]): 0.35 µM | Kd (Galectin-3 [3]): 8 µM | Papp A→B at 1.5 h, 10 µM [4]: 6 ×10⁻⁶ cm/s | Papp B→A at 1.5 h, 10 µM [5]: 50 ×10⁻⁶ cm/s | hepatocyte CLint at 2 µM [6]: 1.1 µL/min/1e6 cells | hepatocyte CLint at 2 µM [7]: < 1.5 µL/min/1e6 cells | fraction unbound at 5 h, 2 µM [8]: 0.068 | fraction unbound at 5 h, 2 µM [9]: 0.033
